According to patent US20230146395A1, “Substituted Pyrimidines and Uses Thereof” (Verge Analytics, Inc., priority 2020, published 2023):
pIC50: −log10 of the molar value. Structures can show the parent of a compound that is named as a salt.

Assays:
[1] = molecular target: T1, PI3Kα (Homo sapiens, UniProt P42336); assay: Inhibition of PI3K isoforms: PI3Kα (microfluidic electrophoresis kinase assay, PIP2/PS substrate); assay type: biochemical; details: p110α/p85α, ATP 90 μM; read-out: PI3Ka IC50
T1 construct: Full-length N-terminal; FLAG (N); host or cells: SF9 cells (baculovirus)
Method: (§1) The kinase substrate was prepared by mixing and sonicating fluorescently-labeled phosphatidylinositol 4,5-phosphate (PIP2) with phospho-L-serine (PS) at 1:20 ratio in 50 mM HEPES buffer pH7.5.
The kinase reactions were assembled in 384-well plates (Greiner) in a total volume of […] as follows. The kinase proteins were pre-diluted in an assay buffer comprising 50 mM HEPES, pH 7.5, 0.012% CHAPS, 1 mM DTT, 10 mM Na3VaO4, 10 mM 3-GP, 3 mM MgCl2, and 40 mM NaCl2, and dispensed into a 384-well plate (10 μL per well). Test compounds were serially pre-diluted in DMSO and added to the protein samples by acoustic dispensing (Labcyte Echo). The concentration of DMSO was equalized to 1% in all samples. All test compounds were tested at 12 concentrations. The control samples (0%-inhibition in the absence of inhibitor, DMSO only) and 100%-inhibition (in the absence of enzyme) were assembled in replicates of four and were used to calculate %-inhibition in the presence of test compounds. The reactions were initiated by addition of 10 μL of the PIP2/PS substrate supplemented with ATP. The final concentration of enzymes was 0.5 nM (PI3Kα), 1 nM (PI3Kβ), 10 nM (PI3Kγ), and 0.25 nM (PI3Kδ). The final concentration of ATP was 90 μM (PI3Kα), 60 μM (PI3Kβ), 100 μM (PI3Kγ), and 90 μM (PI3Kδ). The final concentration of PIP2/PS substrate was 1 μM (PIP2). The kinase reactions were allowed to proceed for 3 h at room temperature. Following incubation, the reactions were quenched by addition of 50 μL of termination buffer (100 mM HEPES, pH 7.5, 0.01% Triton X-100, 20 mM EDTA). Terminated plates were analyzed on a microfluidic electrophoresis instrument (Caliper LabChip® 3000, Caliper Life Sciences/Perkin Elmer). The change in the relative fluorescence intensity of the PI(4,5)P substrate and PI(3,4,5)P product peaks was measured. The activity in each test sample was determined as the product to sum ratio (PSR): P/(S+P), where P is the peak height of the product, and S is the peak height of the substrate. Percent inhibition (Pinh) was determined using the following equation:
Pinh=(PSR0% inh−PSRcompound)/(PSR0% inh−PSR100% inh)*100
in which PSRcompound is the product/sum ratio in the presence of compound, PSR0% inh is the product/sum ratio in the absence of compound, and the PSR100% inh is the product/sum ratio in the absence of the enzyme.

[2] = molecular target: T2, PI3Kβ (Homo sapiens, UniProt P42338); assay: Inhibition of PI3K isoforms: PI3Kβ (microfluidic electrophoresis kinase assay, PIP2/PS substrate); assay type: biochemical; details: p110β/p85α, ATP 60 μM; read-out: PI3Kb IC50
T2 construct: Full-length N-terminal; GST (N); host or cells: SF9 cells (baculovirus)
Method: as §1
The kinase reactions were assembled in 384-well plates (Greiner) in a total volume of […] as follows. The kinase proteins were pre-diluted in an assay buffer comprising 50 mM HEPES, pH 7.5, 0.012% CHAPS, 1 mM DTT, 10 mM Na3VaO4, 10 mM 3-GP, 3 mM MgCl2, and 40 mM NaCl2, and dispensed into a 384-well plate (10 μL per well). Test compounds were serially pre-diluted in DMSO and added to the protein samples by acoustic dispensing (Labcyte Echo). The concentration of DMSO was equalized to 1% in all samples. All test compounds were tested at 12 concentrations. […] Terminated plates were analyzed on a microfluidic electrophoresis instrument (Caliper LabChip® 3000, Caliper Life Sciences/Perkin Elmer). The change in the relative fluorescence intensity of the PI(4,5)P substrate and PI(3,4,5)P product peaks was measured. The activity in each test sample was determined as the product to sum ratio (PSR): P/(S+P), where P is the peak height of the product, and S is the peak height of the substrate. Percent inhibition (Pinh) was determined using the following equation: […]

T1 sequence (P42336 whole entry, canonical isoform): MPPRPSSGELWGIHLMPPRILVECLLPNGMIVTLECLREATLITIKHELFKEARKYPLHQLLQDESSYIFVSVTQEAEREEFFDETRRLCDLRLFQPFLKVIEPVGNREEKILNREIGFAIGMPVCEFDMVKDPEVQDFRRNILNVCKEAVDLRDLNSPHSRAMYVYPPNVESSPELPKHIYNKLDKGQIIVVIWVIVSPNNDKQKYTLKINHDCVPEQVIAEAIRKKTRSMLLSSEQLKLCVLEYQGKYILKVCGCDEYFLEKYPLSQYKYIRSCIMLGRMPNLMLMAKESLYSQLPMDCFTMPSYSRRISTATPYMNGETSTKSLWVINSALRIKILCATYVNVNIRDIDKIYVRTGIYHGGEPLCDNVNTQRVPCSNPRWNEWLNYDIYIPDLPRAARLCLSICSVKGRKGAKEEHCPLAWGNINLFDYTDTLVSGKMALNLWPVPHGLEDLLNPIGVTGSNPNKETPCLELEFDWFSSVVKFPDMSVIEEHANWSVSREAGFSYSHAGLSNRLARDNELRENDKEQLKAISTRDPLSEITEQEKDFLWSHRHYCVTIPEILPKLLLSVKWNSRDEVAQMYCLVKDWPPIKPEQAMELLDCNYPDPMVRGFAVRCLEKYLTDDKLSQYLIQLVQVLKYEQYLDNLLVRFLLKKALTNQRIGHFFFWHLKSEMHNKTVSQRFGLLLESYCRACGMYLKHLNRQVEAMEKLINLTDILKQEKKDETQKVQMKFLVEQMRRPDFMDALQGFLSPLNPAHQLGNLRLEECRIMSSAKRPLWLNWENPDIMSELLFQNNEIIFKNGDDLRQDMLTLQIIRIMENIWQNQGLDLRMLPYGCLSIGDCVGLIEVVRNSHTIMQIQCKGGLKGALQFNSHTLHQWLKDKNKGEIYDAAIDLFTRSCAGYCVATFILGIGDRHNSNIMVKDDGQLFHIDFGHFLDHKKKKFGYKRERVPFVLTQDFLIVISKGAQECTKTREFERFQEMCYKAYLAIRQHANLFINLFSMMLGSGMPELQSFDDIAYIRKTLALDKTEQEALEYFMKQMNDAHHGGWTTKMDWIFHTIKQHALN
T1 sequence (P27986 whole entry partner, canonical isoform): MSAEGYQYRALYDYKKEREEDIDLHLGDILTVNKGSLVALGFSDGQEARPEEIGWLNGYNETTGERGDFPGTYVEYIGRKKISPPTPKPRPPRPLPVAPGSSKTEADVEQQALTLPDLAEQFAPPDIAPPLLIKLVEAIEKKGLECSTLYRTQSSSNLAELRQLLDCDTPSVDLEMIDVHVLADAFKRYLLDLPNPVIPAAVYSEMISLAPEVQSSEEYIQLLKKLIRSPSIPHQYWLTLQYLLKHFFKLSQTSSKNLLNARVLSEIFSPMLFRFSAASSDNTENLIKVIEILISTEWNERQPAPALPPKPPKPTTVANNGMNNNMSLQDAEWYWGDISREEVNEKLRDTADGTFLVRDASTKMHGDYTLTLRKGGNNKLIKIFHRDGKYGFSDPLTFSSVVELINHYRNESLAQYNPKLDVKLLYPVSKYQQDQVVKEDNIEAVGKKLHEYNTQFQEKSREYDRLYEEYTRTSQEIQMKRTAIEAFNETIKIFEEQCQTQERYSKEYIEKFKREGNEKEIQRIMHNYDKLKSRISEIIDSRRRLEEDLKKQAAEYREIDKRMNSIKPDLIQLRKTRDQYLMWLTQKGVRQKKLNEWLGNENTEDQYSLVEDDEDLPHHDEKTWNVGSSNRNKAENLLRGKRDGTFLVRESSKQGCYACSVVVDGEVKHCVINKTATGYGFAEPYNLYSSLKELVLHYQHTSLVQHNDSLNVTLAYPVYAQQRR
T2 sequence (P42338 whole entry, canonical isoform): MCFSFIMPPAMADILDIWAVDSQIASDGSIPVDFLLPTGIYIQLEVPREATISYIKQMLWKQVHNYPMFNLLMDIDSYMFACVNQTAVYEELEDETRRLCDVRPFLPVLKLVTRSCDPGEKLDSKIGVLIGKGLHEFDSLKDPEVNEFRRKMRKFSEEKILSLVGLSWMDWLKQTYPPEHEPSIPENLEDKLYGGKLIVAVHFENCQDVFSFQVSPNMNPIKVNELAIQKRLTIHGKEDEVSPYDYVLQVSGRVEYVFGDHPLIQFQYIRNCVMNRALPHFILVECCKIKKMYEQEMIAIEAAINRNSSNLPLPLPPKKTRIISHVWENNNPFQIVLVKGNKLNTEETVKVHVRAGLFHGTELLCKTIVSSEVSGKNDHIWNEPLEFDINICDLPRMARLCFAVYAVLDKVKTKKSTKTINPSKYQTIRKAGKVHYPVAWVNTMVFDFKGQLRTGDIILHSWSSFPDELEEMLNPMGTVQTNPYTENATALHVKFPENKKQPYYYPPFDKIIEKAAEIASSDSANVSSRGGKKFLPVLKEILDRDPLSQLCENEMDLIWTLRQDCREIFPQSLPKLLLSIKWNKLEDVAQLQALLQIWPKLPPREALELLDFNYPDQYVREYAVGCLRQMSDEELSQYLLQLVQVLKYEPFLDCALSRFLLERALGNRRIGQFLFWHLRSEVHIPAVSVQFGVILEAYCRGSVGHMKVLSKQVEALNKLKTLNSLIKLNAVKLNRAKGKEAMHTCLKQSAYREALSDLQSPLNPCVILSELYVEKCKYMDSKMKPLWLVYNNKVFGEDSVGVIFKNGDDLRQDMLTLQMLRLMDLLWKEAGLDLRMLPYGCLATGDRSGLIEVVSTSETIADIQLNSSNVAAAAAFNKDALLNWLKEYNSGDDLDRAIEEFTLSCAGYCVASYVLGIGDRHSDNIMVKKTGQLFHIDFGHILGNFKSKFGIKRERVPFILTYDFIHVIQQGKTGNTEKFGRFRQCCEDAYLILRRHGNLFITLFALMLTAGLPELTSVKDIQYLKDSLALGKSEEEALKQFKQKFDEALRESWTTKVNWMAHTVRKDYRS
T2 sequence (P27986 whole entry partner, canonical isoform): as the sequence (P27986 whole entry partner, canonical isoform) above

Question: `c1ccc(-c2cc(Nc3nc(N4CCOCC4)c4oc(-c5ccncc5)cc4n3)[nH]n2)cc1` [Compound 1, 4-morpholino-N-(3-phenyl-1H-pyrazol-5-yl)-6-(pyridin-4-yl)furo[3,2-d]pyrimidin-2-amine hydrochloride] was tested. Which pIC50 [1] did it give?
Answer: The pIC50 was 5.17.

Question: What about the pIC50 [2] of the same compound?
Answer: The pIC50 was less than 5.00.
